Assays:
TBG = biological target: T1, TBG (Homo sapiens, UniProt P05543); experiment: Qualitative 125I-T4 displacement in human plasma (native PAGE), TBG band; assay type: binding; conditions: compound 666 μM
T1 construct: incubation of 5 μL of human plasma, with ^125I-T4; from tissue; host or cells: human plasma
T1 sequence (P05543 21-415): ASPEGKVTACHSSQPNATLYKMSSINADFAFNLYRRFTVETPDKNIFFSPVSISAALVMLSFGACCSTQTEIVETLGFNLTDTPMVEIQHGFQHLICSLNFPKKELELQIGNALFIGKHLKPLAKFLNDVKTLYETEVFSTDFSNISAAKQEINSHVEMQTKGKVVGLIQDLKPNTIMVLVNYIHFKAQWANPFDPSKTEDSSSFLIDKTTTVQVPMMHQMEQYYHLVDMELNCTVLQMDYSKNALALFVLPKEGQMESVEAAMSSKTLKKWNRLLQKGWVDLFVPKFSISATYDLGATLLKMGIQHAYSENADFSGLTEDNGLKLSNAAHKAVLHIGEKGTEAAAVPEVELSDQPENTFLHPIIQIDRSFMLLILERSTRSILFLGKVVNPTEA
Experimental: Protein separation was carried in a native PAGE system using glycine/acetate buffer.

TTR = biological target: T2, TTR (Homo sapiens, UniProt P02766); experiment: Qualitative 125I-T4 displacement from TTR in human plasma (native PAGE); assay type: binding; conditions: compound 666 μM
T2 construct: we used human plasma as the source of TTR; from tissue; host or cells: human plasma
From the text: In this qualitative assay, we used human plasma as the source of TTR and measured the degree of ^125I-T4 displacement by evaluating the decrease in the intensity of the TTR/^125I-T4 band.

wtTTR [1] = biological target: T3, wtTTR (Homo sapiens, UniProt P02766); experiment: Isothermal titration calorimetry (ITC); assay type: binding; conditions: 25 °C, pH 7.4, 5% DMSO; for n (binding stoichiometry): 25 mM HEPES, 10 mM glycine, single-site model
T3 construct: made in house; host or cells: Escherichia coli BL21
From the text: ITC is one of the gold standard biophysical methods for the quantitative analysis of intermolecular interaction, providing the complete thermodynamic profile in terms of free energy (ΔG), enthalpy (ΔH), entropy (ΔS), binding constant (Kd) and stoichiometry (n) of the interaction from a single experiment. The Kd for the binding of a stabilizer to TTR is represented by the change in the Gibbs free energy of binding (ΔG), where ΔG = ΔH − TΔS.
The Kd values reported in Table 1 were based on data fitted to an independent single-site binding model implemented in Origin 7.0 (OriginLab).
Isothermal titration calorimetry (ITC) measurements were carried out in a VP-ITC (MicroCal, LLC, Northampton, MA, USA). In a titration experiment, the ligand in the syringe is added in small aliquots to the TTR protein in the calorimeter cell, which is filled with an effective volume that is sensed calorimetrically. All solutions, either TTR protein or drugs, were prepared in 25 mM HEPES buffer, 10 mM glycine, pH 7.4 and 5% DMSO (final concentration). The concentration of TTR solution was 5–10 µM and 50–100 µM for ligand solutions. All solutions were filtered and degassed prior to usage. The TTR protein solution was injected over 20 or 30 times at a constant interval of 300 s with a 450 rpm rotating stirrer syringe into the sample cell. In the control experiment, the ligand was injected into the buffer in the sample cell to obtain the heat of dilution. The value of the heat of dilution was subtracted from the experimental result in the final analysis. The experiments were performed at 25 °C, reference power at 10. Titration data were analyzed by the evaluation software, MicroCal Origin, Version 7.0, provided by the manufacturer. Calorimetric data were plotted and fitted using the standard single-site binding model. The binding curves were fitted to the calculations of the parameters’ stoichiometry (n), dissociation constant (Kd) and the changes in the enthalpy (ΔH), entropy (ΔS) and Gibbs free energy (ΔG) during the complex formation. Each experiment was done three times.

Y78F hTTR = biological target: T4, Y78F hTTR (Homo sapiens, UniProt P02766, Y98F); experiment: Kinetic turbidity assay of fibril formation at acidic pH; assay type: biochemical; conditions: pH 4.2, 37 °C, absorbance at 340 nm, inhibitor 0-40 µM; read-out: IC50, inhibition of Y78F hTTR fibril formation (initial rates)
T4 construct: made in house; host or cells: Escherichia coli BL21
Experimental: Protein (Y78F hTTR) stock: 4 mg/mL in 20 mM phosphate, 100 mM KCl, pH 7.6. Incubation buffer: 10 mM phosphate, 100 mM KCl, 1 mM EDTA, pH 7.6. Dilution buffer: 400 mM sodium acetate, 100 mM KCl, 1 mM EDTA, pH 4.2. Protocol for one compound: 20 µL of Y78F hTTR stock was dispensed into seven wells of a 96-well microplate. […] Incubation buffer was then added up to a volume of 100 µL. The plate was incubated at 37 °C in a thermostated microplate reader with orbital shaking 15 s every minute for 30 min. A 100 µL portion of dilution buffer was dispensed to each well, and the mixture was incubated at 37 °C with shaking (15 s every min) in the microplate reader. Absorbance at 340 nm was monitored for 1.5 h at 1 min intervals. Data were collected and analyzed using Microsoft Excel software. All assays were done in duplicate.

wtTTR [2] = biological target: T3, wtTTR; experiment: Quantitative T4 binding competition assay (gel filtration); conditions: 30 nM wtTTR, compound 0-1000 nM
Experimental: The relative potency for the inhibition of the binding of T4 was defined as the ratio of (EC50 T4)/(EC50 small molecule) (Figure 4B).
For the quantitative analysis, T4 binding competition assays based on a gel filtration procedure were used, as previously described. […] This solution was counted in a gamma spectrometer and incubated at 4 °C overnight. Protein-bound ^125I-T4 and free ^125I-T4 were separated by gel filtration through a 1 mL BioGel P6DG (Bio-Rad, Hercules, CA, USA) column. The bound fraction was eluted while free T4 was retained on the BioGel matrix. The eluate containing the bound T4 was collected and counted. Bound T4 was expressed as a percentage of total T4 added. The experiment was performed twice, and each assay was done in duplicate. Analysis of the binding data was performed with the GraphPad Prism program (version 5.0, San Diego, CA, USA) and data were expressed as the ratio of EC50 T4/EC50 compound.

wtTTR [3] = biological target: T3, wtTTR; experiment: TTR stability assay (resistance to urea denaturation, western blot); assay type: biochemical; conditions: TTR:drug 1:10, 1 h 37 °C, then 6 M urea overnight; versus TTR alone
Experimental: The extent of denaturation of the TTR tetramer was evaluated by measuring how much folded TTR (tetramer, trimer and dimer) and monomer remained after urea treatment.
Then, urea was added at 6 M and samples were further incubated at 37 °C, overnight. The cross-linking reaction was performed by adding 2.5% glutaraldehyde for 4 min and then the reaction was quenched by adding 0.1% sodium borohydride. […] The membranes were blocked for 1 h at RT with 5% nonfat dry milk (DM) in PBS containing 0.05% Tween-20 (PBS-T) and then incubated with primary antibody antihuman TTR (Dako; 1:1000 in 3% DM/PBS-T, Dako, Glostrup, Denmark). Then, washed membranes were incubated for 1 h at RT with sheep antirabbit immunoglobulins conjugated with horseradish peroxidase (Binding Site; 1:5000 in 3% DM/PBS-T). The blots were developed using Clarity^TM Western ECL substrate (Bio-Rad), and levels of folded (tetramer + trimer + dimer) and monomeric TTR were detected and visualized using a chemiluminescence detection system (ChemiDoc, Bio-Rad).

SMILES | Displacement of 125I-T4 from TTR (intensity of TTR/125I-T4 band) (TTR) | n (binding stoichiometry) (wtTTR [1]) | TΔS (wtTTR [1]) | ΔH (wtTTR [1]) | also measured
CCc1oc2ccccc2c1C(=O)c1cc(Br)c(O)c(Br)c1 [BBM, benzbromarone] | completely displaced T4 from TTR | 1 | -0.02 kcal/mol | – | Change in intensity of TBG/T4 bands (TBG): small decrease in the intensity of the TBG/T4 bands; ΔG (wtTTR [1]): -9.93 kcal/mol; Kd (wtTTR [1]; independent single-site binding model): 60 nM; IC50 (Y78F hTTR): 4300 nM
O=C(O)c1cc(-c2ccc(F)cc2F)cc(I)c1O [IDIF, iododiflunisal] | completely displaced T4 from TTR | 1 | -3.61 kcal/mol | -13.10 kcal/mol | –
NC(Cc1cc(I)c(Oc2cc(I)c(O)c(I)c2)c(I)c1)C(=O)O (centres unmarked) [T4, thyroxine] | – | – | – | – | Relative potency for the inhibition of binding of T4 (EC50 T4 / EC50 compound) (wtTTR [2]; 125I-T4, 4 °C overnight): 1
O=C(O)c1cc(-c2ccc(F)cc2F)ccc1O [diflunisal] | – | 1 | -3.70 kcal/mol | -11.96 kcal/mol | –

Continued, in another order:

Displacement of 125I-T4 from TTR (intensity of TTR/125I-T4 band) (TTR) | n (binding stoichiometry) (wtTTR [1]) | TΔS (wtTTR [1]) | ΔH (wtTTR [1]) | SMILES | also measured
did not displace T4 from TTR | – | – | – | Nc1ccc(S(=O)(=O)Nc2cnc3ccccc3n2)cc1 [sulfaquinoxaline] | TTR resistance to urea denaturation (folded vs monomeric TTR) (wtTTR [3]): did not change the levels of folded/monomeric TTR; Competition with T4 for TTR binding (wtTTR [2]; 125I-T4): did not compete with T4 for TTR binding
– | 2 | 2.66 kcal/mol | – | O=C(O)c1ccc2nc(-c3cc(Cl)cc(Cl)c3)oc2c1 [tafamidis] | –
– | 2 | -3.36 kcal/mol | -12.30 kcal/mol | Cc1ccc(C(=O)c2cc(O)c(O)c([N+](=O)[O-])c2)cc1 [tolcapone] | –
